Reference: the NIST ThermoML archive (doi:10.1016/j.fluid.2010.02.021)

Assay: xn = mol fraction of the nth substance listed
Settings: 101.3 kPa, Liquid, Falling or rolling sphere viscometry

CCn1cc[n+](C)c1.O=S(=O)([N-]S(=O)(=O)C(F)(F)F)C(F)(F)F + O
viscosity [mPa·s]
Settings	x2 = 0	x2 = 0.1074	x2 = 0.2228	x2 = 0.3027
303.15 K	28.6	23.8	19.4	16.4
323.15 K	15.9	13.6	11.4	9.9
